# Reference: US20250312416A1, “METHOD AND PHARMACEUTICAL COMPOSITION FOR CARTILAGE REGENERATION” (FAR EASTERN MEMORIAL HOSPITAL, priority 2024, published 2025)
# Entries after “also recorded” stand apart in the source; their conditions may differ.
# Legend:
# [1] = system: clinical-grade ADSCs; test: Real-time PCR of chondrogenic genes in ADSCs; type: cell-based, human; conditions: for expression of chondrogenic genes (SOX9, COL2A1, COMP, ACAN, ITGB1, CXCL14, CXCR4): alanine-substituted variants, 10 ng one-day treatment, day 7, relative to untreated control ADSCs
# Description: Real-time PCR analysis was conducted on day 7 for CXCL12/CXCL14 peptides treated ADSCs, evaluating the expression of COMP, SOX9, COL2A1, ACAN, ITGB1, and SOSTDC1 genes. Cells were harvested, and RNA extraction was performed using a LightCycler® (Roche Applied Science). The fold change in gene expression on the y-axis was calculated relative to the same gene expression in untreated chondrocytes. Statistical analysis was conducted using one-way ANOVA. Significance levels are denoted as follows: * p<0.05, ** p<0.01, *** p<0.001, and **** p<0.0001 for comparisons between PBS treatments and the untreated group.
# Real-time PCR analysis was performed on day 7 for ADSCs treated with CXCR4 agonists, assessing the expression of COMP, SOX9, COL2A1, ACAN, ITGB1, CXCL14, and SOSTIC1 genes. Cellular harvest, RNA extraction, and gene expression quantification were conducted using a LightCycler® (Roche Applied Science). The fold change in gene expression on the y-axis was calculated relative to the same gene expression in untreated chondrocytes. Statistical analysis was executed through one-way ANOVA. Significance levels are represented as follows: * p<0.05, ** p<0.01, *** p<0.001, and **** p<0.0001, indicating the significance of comparisons between PBS treatments and the untreated group.
# (§1) Alcian blue staining was used to assess the chondrogenic differentiation of ADSC pellets. […] Treatment with CXCL14-PM1, CXCL14-PM2, CXCL14-PM3, and CXCR4-PM1 was sufficient to enhance the expression of chondrogenic genes in ADSCs. On day 7, real-time PCR was performed to analyze the expression of key chondrogenic markers, including SOX9, COL2A1, COMP, ACAN, ITGB1, CXCL14, and CXCR4, in ADSCs treated with these modified peptides. ADSCs were exposed to distinct peptide modifications derived from CXCL12, CXCL14, and CXCR4 at a concentration of 10 ng for a one-day treatment, after which the medium was replaced with fresh peptide-free medium. At the end of the treatment period, RNA was extracted to evaluate the expression levels of chondrogenesis-related cytokine genes. Gene expression quantification was performed using a LightCycler system (Roche Applied Science), and fold changes were calculated relative to untreated control ADSCs. […] FIG. 16(D) provides a summary of the results for alanine substitution with positively or negatively charged amino acids in CXCL12, CXCL14, and CXCR4 peptides.
# ADSCs were treated with CXCL14-P, CXCL14-P1, or CXCL14-P2, respectively, at a concentration of 10 ng for 24 hours, after which the medium was replaced with fresh peptide-free medium. On day 7, total RNA was extracted, and real-time PCR analysis was performed to assess the expression levels of key chondrogenic markers, including ACAN, COL2A1, SOX9, and COMP. Gene expression levels were quantified using a LightCycler system (Roche Applied Science), with fold changes calculated relative to untreated control ADSCs. […] Immunofluorescence staining was performed to detect Collagen Type II, SOX9, COMP, and nuclei (Hoechst 33342) in 3D ADSC spheroids (middle panel). […]
# Human IPFP-MSCs and ADSCs were expanded in Dulbecco's Modified Eagle's Medium (DMEM, Gibco, cat. no 2145484) with 10% FBS under a 37° C., 5% CO2 atmosphere. MSCs collected and cell extractions were determined gene expression levels of cytokines and chondrogenic markers using a LightCycler® (Roche Applied Science). The fold change in gene expression on the y-axis was calculated based on untreated cell gene expression.
# [2] = system: clinical-grade ADSCs; test: Alcian blue staining of chondrogenic pellets (GAG), ADSCs; type: cell-based, human; conditions: for GAG deposition (Alcian blue): day 7, CXCL14 variants vs CXCL14-P, CXCR4-PM1 vs control
# Description: The chondrogenic differentiation of pellets containing clinical-grade ADSCs was assessed through Alcian blue staining.
# The chondrogenic differentiation of pellets containing clinical-grade ADSCs was evaluated using Alcian blue staining.
# as §1
# To assess differentiation capacity, single-cell suspensions from cultured IPFP-MSCs and ADSCs were cultivated in chondrogenic medium. Alcian Blue staining was performed on day 7 to evaluate chondrogenic differentiation. The chondrogenic differentiation test was measured gene expressions of ACAN, COL2A1, SOX9, COMP, ITGB1, CXCL14 and SOSTDC1.
# [3] = system: ADSC spheroids; test: Immunofluorescence / confocal microscopy of chondrogenic proteins in ADSC spheroids; type: cell-based, human; conditions: ADSC spheroids, 7 days
# Description: Both side views (observed in the x and z plane) and bottom views (observed in the […]) of the images are provided. The scale bar is set at 500 μm.
# ADSCs were treated with CXCL14-P, CXCL14-P1, or CXCL14-P2, respectively, at a concentration of 10 ng for 24 hours, after which the medium was replaced with fresh peptide-free medium. On day 7, total RNA was extracted, and real-time PCR analysis was performed to assess the expression levels of key chondrogenic markers, including ACAN, COL2A1, SOX9, and COMP. Gene expression levels were quantified using a LightCycler system (Roche Applied Science), with fold changes calculated relative to untreated control ADSCs. […] Immunofluorescence staining was performed to detect Collagen Type II, SOX9, COMP, and nuclei (Hoechst 33342) in 3D ADSC spheroids (middle panel).
# (FIG. 3). […] Moreover, fluorescence confocal microscopy was employed to detect protein patterns and confirm the levels of SOX9, type II collagen, and aggrecan proteins in ADSC spheroids. […] Finally, to investigate whether the CXCR4 receptor of CXCL12/CXCL14 confers chondrogenic signaling during chondrogenesis, we treated ADSCs with a CXCR4 agonist for 7 days.
# Extracellular vesicles (EVs) derived from MSCs hold significant potential for repairing damaged tissues. In this study, we explored whether EVs from ADSCs could effectively enhance chondrogenesis and promote cartilage repair. Immunofluorescence staining was used to assess protein levels of Collagen Type II (green), SOX9 (red), COMP (indigo), and Hoechst 33342 (gray) in 3D ADSC spheroids treated with MSC-EVs derived from CXCL14 peptide-primed ADSCs (CXCL14-P-MSC-EVs) at various time points. […] To further explore the cartilage repair functions of EVs from CXCL14-P-treated ADSCs and the encapsulation of the transcription factor SOX9 within MSCs and purified EVs, we performed in vivo studies.
# [4] = system: UC-MSCs; test: Real-time PCR of chondrogenic genes in UC-MSCs; type: cell-based; conditions: day 7 of peptide treatment
# Text: (§2) FIG. 13A provides flowchart illustrating the protocol for peptide treatment and sample collection. […] TGF-beta influenced the expression of chondrogenic genes, including ITGB1 and COMP. […] Treatment with CXCL14/CXCL12 peptides increased GAG content during chondrogenesis in the presence of TGF-beta.
# (§3) To further validate the role of CXCL14-P and CXCL12-P in regulating chondrogenesis, we compared their effects on another MSC source, umbilical cord-derived mesenchymal stem cells (UC-MSCs). It is important to note that the chondrogenic induction medium contained TGF-β. During chondrogenesis, we observed that the chondrogenic patterns in UC-MSCs were lower than those in ADSCs (FIG. 12). Subsequently, we assessed the chondrogenic potential of UC-MSCs following stimulation with CXCL14-P and CXCL12-P (FIG. 13A). […] Although the expression of chondrogenic genes (FIG. 13B) and GAG content (FIG. 13C) in UC-MSCs was not as pronounced as in ADSCs, the findings confirm that CXCL14-P and CXCL12-P can robustly stimulate chondrogenesis across different MSC sources.
# [5] = system: ADSCs; test: Cellular uptake of fluorescently labeled peptides by fluorescence microscopy; type: cell-based, human; conditions: 10 ng FITC-conjugated peptide, 37° C. for one day, observed days 1, 3, 7
# Description: Cell-penetrating properties of CXCL14-P and CXCL12-P peptides in ADSCs were analyzed. ADSCs were incubated with 10 ng of FITC-conjugated peptides at 37° C. for one day, followed by refreshing the chondrogenic medium. Peptide internalization was evaluated through fluorescence microscopy on days 1, 3, and 7.
# We further explored whether peptides derived from CXCL14 and CXCL12 have the capacity to induce chondrogenesis in MSCs from different sources. To assess their potential, ADSCs were utilized in the study to evaluate the chondrogenic capacity of CXCL14-P and CXCL12-P on day 7 (FIG. 10A). […] FIG. 11 illustrates the cell-penetrating properties of CXCL14-P and CXCL12-P peptides in ADSCs, analyzed at different time points. ADSCs were incubated with FITC-conjugated peptides for one day, after which the chondrogenic medium was refreshed. […] Collectively, these observations indicate that CXCL14-P and CXCL12-P have the ability to stimulate chondrogenesis and further amplify the effects of TGF-β during the chondrogenic process.
# [6] = system: UC-MSCs; test: Alcian blue staining of chondrogenic pellets (GAG), UC-MSCs; type: cell-based; conditions: in the presence of TGF-beta
# Text: as §2, §3
substance,measurement,setting,value
ITTKSVSRYRGDEH [CXCL14-PM3],"expression of chondrogenic genes (SOX9, COL2A1, COMP, ACAN, ITGB1, CXCL14, CXCR4)",[1],significantly enhance
same,GAG deposition (Alcian blue),[2],increased GAG deposition; also recorded: did not significantly alter GAG contents
AANVAHLAILN [CXCL12-PM1],"expression of chondrogenic marker genes, variant vs unmodified peptide","[1]; CXCL12-P vs CXCL12-PM1, day 7",no significant changes
same,"expression of chondrogenic genes (SOX9, COL2A1, COMP, ACAN, ITGB1, CXCL14, CXCR4)",[1],significantly enhance
ITTASVSAYAGQEH [CXCL14-PM1],"expression of chondrogenic genes (SOX9, COL2A1, COMP, ACAN, ITGB1, CXCL14, CXCR4)",[1],significantly enhance
same,GAG deposition (Alcian blue),[2],increased GAG deposition; also recorded: enhance GAG contents
ITTKSVSRYRGQAH [CXCL14-PM2],"expression of chondrogenic genes (SOX9, COL2A1, COMP, ACAN, ITGB1, CXCL14, CXCR4)",[1],significantly enhance
same,GAG deposition (Alcian blue),[2],increased GAG deposition; also recorded: enhance GAG contents
"CXCL12: C-X-C motif chemokine 12, also known as stromal cell-derived factor 1 (SDF-1)","expression of SOX9, type II collagen, and aggrecan",[3],notably induced
RANVKHLKILN [CXCL12-P],"chondrogenic gene expression (COMP, SOX9, COL2A1, ACAN, ITGB1)",[4],significantly upregulated
same,"expression of chondrogenic genes (COMP, SOX9, COL2A1, ACAN, ITGB1, SOSTDC1)","[1]; day 7, peptides compared to CXCL12/CXCL14 proteins, listed as CXCL12 peptide",significantly upregulated; also recorded: greater ability
same,"expression of chondrogenic genes (COMP, SOX9, COL2A1, ACAN, ITGB1)",[1]; day 7 of treatment with peptide,significantly upregulated
same,chondrogenic genes,[1]; in the absence of TGF-β,evident
same,expression of chondrogenic genes ITGB1 and COMP,"[1]; in the presence of TGF-β, day 7",significantly enhanced
same,peptide internalization (cell penetration),[5],remain detectable up to day 7
same,GAG content (Alcian blue),[2]; in the absence of TGF-β,evident
same,GAG content (Alcian blue),[2]; in the presence of TGF-beta,significantly increased
same,GAG content (Alcian blue),"[2]; peptides compared to CXCL14/CXCL12 proteins, listed as CXCL12 peptide",significantly higher; also recorded: greater ability
same,GAG content (Alcian blue),[6],increased
MGYGAALASMTDAYAL (MGYQAALASMTDAYAL) [CXCR4-PM1],"expression of chondrogenic genes (SOX9, COL2A1, COMP, ACAN, ITGB1, CXCL14, CXCR4)",[1],significantly enhance
same,GAG deposition (Alcian blue),[2],increased GAG deposition; also recorded: significantly enhanced
